{"source": "patent US5198457A", "about": "“Treatment of hyperthyroidism with 1,3-dihydro-1[2-(2-thienyl)alkyl]-2H-imidazole-2-thiones” (Merrell Dow Pharmaceuticals Inc., priority 1992, dated 1993)", "key": {"thyroid [1]": {"test_system": "thyroid", "conditions": "Fuller et al. 1977; cited from earlier work"}, "[2]": {"test_system": "dopamine beta-hydroxylase", "conditions": "relative to methimazole analogs with larger 1-alkyl substituents; Fuller et al. 1977; cited from earlier work"}, "[3]": {"test_system": "thyroid follicular epithelium", "test": "Two week rat study, oral gavage: thyroid findings", "type": "in vivo, Sprague-Dawley rats", "experimental": "The activity of the compounds of Formula I is illustrated through their effects on thyroid function in the rat.\n(§1) Sprague-Dawley rats were divided into groups of five males and five females and administered daily by gavage 0, 50, 100, 200, 300, 500, 700 and 1,000 mg/kg/day for two weeks under both fed and fasted conditions. Behavior of the rats was monitored daily while body weight, food consumption and clinical signs were measured weekly. At the termination of the study, rats were bled for clinical chemistry and hematology determinations. After bleeding, rats were sacrificed and necropsied in order that organs could be examined grossly, and tissue specimens were collected for subsequent microscopic examination."}, "thyroid [4]": {"test_system": "thyroid", "test": "Three month rat study, gavage: thyroid histology and thyroid weight", "type": "in vivo, Sprague-Dawley rats", "conditions": "for Thyroid follicular cell hyperplasia (incidence), treatment: up to three months, gavage; for Thyroid weight, treatment / Thyroid weight, recovery: mean ± standard deviation; for Thyroid weight, recovery: one month recovery", "experimental": "(§2) Collectively, these findings are consistent with drug-induced inhibition of thyroid function and resulting morphological alterations due to compensatory stimulation of increased TSH due to decreased secretion of thyroid hormones.\n(§3) For this study Sprague-Dawley rats were divided into groups of 33 males and 33 females and administered by gavage 0, 50 and 200 mg/kg/day of 1,3-dihydro-1-[2-(2-thienyl)ethyl]-2H-imidazole-2-thione in 0.5% aqueous methylcellulose for up to three months. Additional pharmacokinetic study of drug levels was performed by bleeding 3 males and 3 females from each group either 2 or 24 hours posdosing on treatment days 1, 45 and 87. Study parameters included daily observation of behavior; weekly observations of physical condition, food consumption and body weight; and terminal ophthalmoscopic evaluation, serum clinical chemistry, hematology, organ weights, and gross and microscopic tissue examinations."}, "[5]": {"test": "Two week rat study: clinical chemistry (cholesterol)", "type": "in vivo, Sprague-Dawley rats", "experimental": "as §1"}, "[6]": {"test": "Three month rat study, gavage: serum cholesterol", "type": "in vivo, Sprague-Dawley rats", "experimental": "as §2, §3"}, "[7]": {"conditions": "200 mg/kg/day, female, P < 0.01 compared to controls"}}}
{"compound": "Sc1nccn1C1CCCCC1", "note": "[1-cyclohexyl-2-mercaptoimidazole (CHMI), 1-cyclohexyl-2-mercaptoimidazole]", "values": [{"measurement": "Antithyroid activity", "setting": "thyroid [1]", "value": "only slight antithyroid activity"}, {"measurement": "DBH-inhibiting activity", "setting": "[2]", "value": "greatest DBH inhibition"}]}
{"compound": "S=c1[nH]ccn1CCc1cccs1", "note": "[1,3-Dihydro-1-[2-(2-thienyl)ethyl]-2H-imidazole-2-thione]", "values": [{"measurement": "Thyroid follicular epithelium findings, lower doses", "setting": "[3]; 100-300 mg/kg/day males, 50-300 mg/kg/day females, two weeks", "value": "mainly hypertrophic with minimal colloid involution"}, {"measurement": "Thyroid follicular cell findings, high doses", "setting": "[3]; >500 mg/kg/day, two weeks", "value": "diffuse hyperplasia, hypertrophy, increased mitotic FIGURES, and involution or total absence of luminal colloid"}, {"measurement": "Onset of effect on thyroid follicular epithelium", "setting": "[3]; oral, 50 to 700 mg/kg/day", "value": "three to four"}, {"measurement": "Effect on thyroid follicular epithelium", "setting": "[3]; oral, 50 to 700 mg/kg/day, two weeks", "value": "striking effects on the thyroid follicular epithelium"}, {"measurement": "Effect on thyroid gland at high doses", "setting": "[3]; rat, high doses", "value": "lesions in the thyroid gland and associated clinicopathological findings that indicate thyroid hormone synthesis is reduced or inhibited"}, {"measurement": "Thyroid follicular cell hyperplasia (incidence), treatment", "setting": "thyroid [4]; 50 mg/kg/day, female", "value": "7/10"}, {"measurement": "Thyroid weight, treatment", "setting": "thyroid [4]; 50 mg/kg/day, female, P < 0.01 compared to controls", "value": ".03 ± .01 gm"}, {"measurement": "Thyroid follicular cell hyperplasia (incidence), recovery", "setting": "thyroid [4]; 50 mg/kg/day, female, one month recovery from dosing", "value": "0/5"}, {"measurement": "Thyroid weight, recovery", "setting": "thyroid [4]; 50 mg/kg/day, female", "value": ".02 ± .00 gm"}, {"measurement": "Thyroid follicular cell hyperplasia (incidence), treatment", "setting": "thyroid [4]; 50 mg/kg/day, male", "value": "10/10"}, {"measurement": "Thyroid weight, treatment", "setting": "thyroid [4]; 50 mg/kg/day, male, P < 0.01 compared to controls", "value": ".04 ± .01 gm"}, {"measurement": "Thyroid follicular cell hyperplasia (incidence), recovery", "setting": "thyroid [4]; 50 mg/kg/day, male, one month recovery from dosing", "value": "0/5"}, {"measurement": "Thyroid weight, recovery", "setting": "thyroid [4]; 50 mg/kg/day, male", "value": ".03 ± .01 gm"}, {"measurement": "Thyroid follicular cell hyperplasia (incidence), treatment", "setting": "thyroid [4]; 200 mg/kg/day, female", "value": "10/10"}, {"measurement": "Thyroid weight, treatment", "setting": "thyroid [4]; [7]", "value": ".06 ± .03 gm"}, {"measurement": "Thyroid follicular cell hyperplasia (incidence), recovery", "setting": "thyroid [4]; 200 mg/kg/day, female, one month recovery from dosing", "value": "8/10"}, {"measurement": "Thyroid weight, recovery", "setting": "thyroid [4]; [7]", "value": ".03 ± .01 gm"}, {"measurement": "Thyroid follicular cell hyperplasia (incidence), treatment", "setting": "thyroid [4]; 200 mg/kg/day, male", "value": "10/10"}, {"measurement": "Thyroid weight, treatment", "setting": "thyroid [4]; 200 mg/kg/day, male, P < 0.01 compared to controls", "value": ".14 ± .08 gm"}, {"measurement": "Thyroid follicular cell hyperplasia (incidence), recovery", "setting": "thyroid [4]; 200 mg/kg/day, male, one month recovery from dosing", "value": "0/5"}, {"measurement": "Thyroid weight, recovery", "setting": "thyroid [4]; 200 mg/kg/day, male, P < 0.05 compared to controls", "value": ".05 ± .01 gm"}, {"measurement": "Reversibility of thyroid findings", "setting": "thyroid [4]; one month recovery from dosing", "value": "nearly completely reversible"}, {"measurement": "Thyroid effects, three month study", "setting": "thyroid [4]; single daily doses of 50 and 200 mg/kg/day", "value": "profound thyroid effects characterized by thyroid follicular cell hyperplasia, increased thyroid weights and hypercholesteremia"}, {"measurement": "Cholesterol level, % of pretest values", "setting": "[5]; females, doses >200 mg/kg/day", "value": "approximately 135%"}, {"measurement": "Cholesterol level, % of pretest values", "setting": "[5]; males, doses >500 mg/kg/day", "value": "approximately 135%"}, {"measurement": "Serum cholesterol, treatment", "setting": "[6]; 50 mg/kg/day, female (control 71)", "value": 88, "unit": "mg/dL"}, {"measurement": "Serum cholesterol, recovery", "setting": "[6]; 50 mg/kg/day, female, one month recovery (control 66)", "value": 86, "unit": "mg/dL"}, {"measurement": "Serum cholesterol, treatment", "setting": "[6]; 50 mg/kg/day, male (control 63)", "value": 81, "unit": "mg/dL"}, {"measurement": "Serum cholesterol, recovery", "setting": "[6]; 50 mg/kg/day, male, one month recovery (control 75)", "value": 74, "unit": "mg/dL"}, {"measurement": "Serum cholesterol, treatment", "setting": "[6]; 200 mg/kg/day, female (control 71)", "value": 105, "unit": "mg/dL"}, {"measurement": "Serum cholesterol, recovery", "setting": "[6]; 200 mg/kg/day, female, one month recovery (control 66)", "value": 76, "unit": "mg/dL"}, {"measurement": "Serum cholesterol, treatment", "setting": "[6]; 200 mg/kg/day, male (control 63)", "value": 97, "unit": "mg/dL"}, {"measurement": "Serum cholesterol, recovery", "setting": "[6]; 200 mg/kg/day, male, one month recovery (control 75)", "value": 76, "unit": "mg/dL"}]}
{"compound": "Cn1ccnc1S", "note": "[methimazole, 1-methyl-2-mercaptoimidazole]", "values": [{"measurement": "DBH-inhibiting activity", "setting": "[2]", "value": "less pronounced than that of methimazole analogs bearing larger 1-alkyl substituents"}]}
